The record followed here is BindingDB's records for doi:10.7270/Q2CV4GM1 (D3R/Abbott, 2015).

In general, IC50 refers to the concentration needed to halve the response being measured. Read a low IC50 as inhibition by little substance.

Several values for one entry are separate records, joined by “and”; a condition that tells them apart may be missing. Equal entries are not always repeated.

The target in the assay is T1, Tyrosine-protein kinase SYK [355-635] (Homo sapiens, UniProt P43405).
T1 construct: 355-635
In words: SYK assay_HTRF.
For `NC(=O)c1cccc(Nc2nccc(N(CCCO)c3cccc4[nH]ncc34)n2)c1` [GTC000309A], the IC50 came out at 17.7 nM. As for `CN(c1nc(Nc2ccc3c(c2)S(=O)(=O)NC3)ncc1F)c1cccc2[nH]ncc12` [GTC000249A], the IC50 was 11.6 nM and 1.99 nM. Take `c1cc(Nc2ccnc(Nc3ccc4ncsc4c3)n2)c2cn[nH]c2c1` [GTC000122A]: the concentration for half-maximal inhibition (IC50) was 40 nM and 53.5 nM. The molecule `CC(=O)N1CCc2cc(Nc3nccc(Nc4cccc5[nH]ncc45)n3)ccc21` [GTC000114A] displayed an IC50 of 206 nM. The same measure for `CCN(c1nc(Nc2ccc(C)c(S(N)(=O)=O)c2)ncc1F)c1cccc2[nH]ncc12` [GTC000349A]: 35.9 nM; for `CCN(c1nc(Nc2ccc(N)c(OC(C)=O)c2)ncc1F)c1cccc2[nH]ncc12` [GTC000348A]: 30.5 nM. The same measure for `O=C1NC(=O)c2cc(Nc3nccc(Nc4cccc5[nH]ncc45)n3)ccc21` [GTC000171A]: 506 nM; for `COC(=O)CCCCN(c1ccnc(Nc2ccc3c(c2)S(=O)(=O)NC3)n1)c1cccc2[nH]ncc12` [GTC000296A]: 5.04 nM and 25.1 nM and 21.6 nM. In turn, `CCN(c1nc(Nc2cccc(S(N)(=O)=O)c2)ncc1Cl)c1cccc2[nH]ncc12` [GTC000355A] yielded an IC50 of 56.9 nM.

The molecule `CCNC(=O)c1ccc(Nc2ncc(F)c(N(CC)c3cccc4[nH]ncc34)n2)cc1` [GTC000312A] gave an IC50 of 16.1 nM.

As to `CNC(=O)COc1cccc(Nc2nccc(Nc3cccc4[nH]ncc34)n2)c1` [GTC000140A], the IC50 is 36.3 nM and 45.7 nM and 37.4 nM and 80.7 nM. In the case of `COCCN(c1ccnc(Nc2ccc3c(cnn3C)c2)n1)c1cccc2[nH]ncc12` [GTC000345A], 30.8 nM corresponded to half-maximal inhibition (IC50).

Take `CN(c1nc(Nc2ccc3cnn(C)c3c2)ncc1F)c1cccc2[nH]ncc12` [GTC000276A]: the IC50 was determined as 5.98 nM. The same measure for `COc1cc(Nc2nccc(Nc3cccc4[nH]ncc34)n2)cc(OC)c1` [GTC000118A]: 35.3 nM and 67.1 nM and 93.5 nM and 203 nM; for `CCN(c1nc(Nc2cc(S(N)(=O)=O)ccc2OC)ncc1F)c1cccc2[nH]ncc12` [GTC000341A]: 30.5 nM; for `CCN(c1nc(Nc2ccc3c(c2)[nH]c(=O)n3C)ncc1F)c1cccc2[nH]ncc12` [GTC000283A]: 8.13 nM. The same measure for `O=S(=O)(Nc1nccs1)c1ccc(Nc2nccc(Nc3cccc4[nH]ncc34)n2)cc1` [GTC000186A]: 615 nM and 427 nM; for `CCN(c1nc(Nc2ccc3c(c2)C(C)(C)C(=O)N3)ncc1F)c1cccc2[nH]ncc12` [GTC000302A]: 13.2 nM; for `CS(=O)(=O)NCCCCN(c1ccnc(Nc2ccc3[nH]c(=O)[nH]c3c2)n1)c1cccc2[nH]ncc12` [GTC000288A]: 19.8 nM and 5.42 nM. The same measure for `O=C(O)COc1ccc(Nc2nccc(Nc3cccc4[nH]ncc34)n2)cc1` [GTC000198A]: 326 nM; for `Cc1noc(NS(=O)(=O)c2ccc(Nc3nccc(Nc4cccc5[nH]ncc45)n3)cc2)c1C` [GTC000187A]: 1380 nM and 971 nM; for `CS(=O)(=O)c1cccc(Nc2nccc(N(CCO)c3cccc4[nH]ncc34)n2)c1` [GTC000311A]: 15.3 nM. `CCN(c1nc(Nc2ccc3c(c2)CC(=O)N3)ncc1F)c1cccc2[nH]ncc12` [GTC000272A] had an IC50 of 6.95 nM. The same measure for `CCN(c1nc(Nc2cccc(S(=O)(=O)NC3CC3)c2)ncc1F)c1cccc2[nH]ncc12` [GTC000342A]: 33.8 nM.

With `CS(=O)(=O)NCCCCCN(c1ccnc(Nc2ccc3[nH]c(=O)[nH]c3c2)n1)c1cccc2[nH]ncc12` [GTC000308A], the IC50 was 17.7 nM and 15.4 nM. In turn, `O=C1Nc2ccc(Nc3nccc(N(CCO)c4cccc5[nH]ncc45)n3)cc2CO1` [GTC000258A] showed an IC50 of 5 nM.

`O=C1CCCN1CCCNS(=O)(=O)Cc1ccc(Nc2nccc(Nc3cccc4[nH]ncc34)n2)cc1` [GTC000202A] had an IC50 of 706 nM. The same measure for `COC(=O)CCCN(c1ccnc(Nc2ccc3c(c2)S(=O)(=O)NC3)n1)c1cccc2[nH]ncc12` [GTC000297A]: 6.89 nM and 13.9 nM and 13.1 nM; for `CN(c1nc(Nc2cccc(S(N)(=O)=O)c2)ncc1F)c1cccc2[nH]ncc12` [GTC000337A]: 22.8 nM. The same measure for `NC(=O)c1ccc(Nc2nccc(Nc3cccc4[nH]ncc34)n2)cc1` [GTC000108B]: 100 nM and 218 nM and 51.4 nM and 59.8 nM.

As to `O=C1Cc2ccc(Nc3nccc(Nc4cccc5[nH]ncc45)n3)cc2N1` [GTC000154A], the IC50 is 22.3 nM and 41.5 nM. The same measure for `CCN(c1nc(Nc2ccc3[nH]c(=O)oc3c2)ncc1F)c1cccc2[nH]ncc12` [GTC000361A]: 72.3 nM; for `CCN(c1nc(Nc2cccc(S(N)(=O)=O)c2)ncc1F)c1cccc2[nH]ncc12` [GTC000240B]: 3.21 nM and 19 nM and 19.8 nM and 17.2 nM. The same measure for `CCN(CC)C(=O)c1ccc(Nc2nccc(Nc3cccc4[nH]ncc34)n2)cc1` [GTC000150A]: 315 nM; for `CN(c1nc(Nc2ccc3nn[nH]c3c2)ncc1F)c1cccc2[nH]ncc12` [GTC000265A]: 5.6 nM.

With `Cc1noc(NC(=O)Cc2ccc(Nc3nccc(Nc4cccc5[nH]ncc45)n3)cc2)c1C` [GTC000205A], the IC50 was found to be 925 nM.

With `NCCCCCN(c1ccnc(Nc2ccc3[nH]c(=O)[nH]c3c2)n1)c1cccc2[nH]ncc12` [GTC000269A], the IC50 was determined as 6.97 nM.

Take `Cn1ncc2cc(Nc3nccc(Nc4cccc5[nH]ncc45)n3)ccc21` [GTC000164A]: the IC50 was 58.5 nM and 86.1 nM and 214 nM. Regarding `CNC(=O)COc1ccc(Nc2nccc(Nc3cccc4[nH]ncc34)n2)cc1` [GTC000197A], the IC50 was found to be 299 nM. The same measure for `COc1ccc(NC(=O)Cc2ccc(Nc3nccc(Nc4cccc5[nH]ncc45)n3)cc2)cc1` [GTC000208A]: 849 nM. `CCN(c1nc(Nc2ccc3c(C)nn(CCCO)c3c2)ncc1F)c1cccc2[nH]ncc12` [GTC000242A]: the 50% inhibitory concentration (IC50) is 3.61 nM and 9.62 nM and 1.58 nM and 2.77 nM and 3.88 nM.

For the molecule `COCCCN(c1ccnc(Nc2cccc(S(C)(=O)=O)c2)n1)c1cccc2[nH]ncc12` [GTC000352A], the IC50 is 23.1 nM and 99.3 nM. The same measure for `CCN(c1nc(Nc2ccc3c(c2)S(=O)(=O)N(CC)C3)ncc1F)c1cccc2[nH]ncc12` [GTC000307A]: 16.2 nM and 14 nM; for `COCCCN(c1ccnc(Nc2cccc(C(N)=O)c2)n1)c1cccc2[nH]ncc12` [GTC000324A]: 12.8 nM and 61.9 nM.

`CN1C(=O)c2ccc(Nc3nccc(Nc4cccc5[nH]ncc45)n3)cc2C1=O` [GTC000170A] registered a 50% inhibitory concentration (IC50) of 573 nM.

`NS(=O)(=O)c1cccc(Nc2nccc(N(CC(F)(F)F)c3cccc4[nH]ncc34)n2)c1` [GTC000365A] showed an IC50 of 98.2 nM.

With `COCCCN(c1nc(Nc2ccc3cnn(C)c3c2)ncc1F)c1cccc2[nH]ncc12` [GTC000298A], the IC50 was 10.7 nM and 15.6 nM and 15.1 nM. The same measure for `CCN(c1nc(Nc2ccc3cnn(CCCO)c3c2)ncc1F)c1cccc2[nH]ncc12` [GTC000250A]: 2.81 nM and 3.59 nM and 14.9 nM and 5.77 nM; for `CC(C)c1ccc(Nc2nccc(Nc3cccc4[nH]ncc34)n2)cc1` [GTC000128A]: 219 nM; for `O=C(O)CCCN(c1ccnc(Nc2ccc3c(c2)S(=O)(=O)NC3)n1)c1cccc2[nH]ncc12` [GTC000245A]: 3.88 nM. Regarding `COCCN(c1ccnc(Nc2ccc3nn[nH]c3c2)n1)c1cccc2[nH]ncc12` [GTC000322A], the IC50 is 20.5 nM. For `COCCCN(c1nc(Nc2cccc(-c3ocnc3C)c2)ncc1F)c1cccc2[nH]ncc12` [GTC000315A], inhibition was half-maximal at 16.3 nM (IC50). The same measure for `O=c1ccc2cc(Nc3nccc(Nc4cccc5[nH]ncc45)n3)ccc2o1` [GTC000169A]: 421 nM and 242 nM.

In turn, `NS(=O)(=O)c1cccc(Nc2nccc(N(CCCO)c3cccc4[nH]ncc34)n2)c1` [GTC000259A] registered an IC50 of 5.02 nM. The same measure for `Cn1ncc2ccc(Nc3nccc(N(CCCCO)c4cccc5[nH]ncc45)n3)cc21` [GTC000274A]: 5.89 nM; for `O=C1Cc2cc(Nc3nccc(Nc4cccc5[nH]ncc45)n3)ccc2N1` [GTC000107A]: 180 nM and 71 nM and 80.7 nM and 115 nM; for `Cn1ncc2ccc(Nc3nccc(Nc4cccc5[nH]ncc45)n3)cc21` [GTC000124A]: 16.8 nM and 21.7 nM.

`CCN(c1nc(Nc2cccc(-c3cnco3)c2)ncc1Cl)c1cccc2[nH]ncc12` [GTC000317A]: the IC50 was 9.93 nM and 24.8 nM and 41.3 nM.

Turning to `O=C(Cc1ccc(Nc2nccc(Nc3cccc4[nH]ncc34)n2)cc1)Nc1ccncc1` [GTC000216A], the IC50 was 828 nM.

Turning to `Cc1nc(NS(=O)(=O)Cc2ccc(Nc3nccc(Nc4cccc5[nH]ncc45)n3)cc2)sc1C` [GTC000201A], the IC50 worked out at 1100 nM. The same measure for `CCN(c1nc(Nc2cc(S(N)(=O)=O)ccc2C)ncc1F)c1cccc2[nH]ncc12` [GTC000364A]: 102 nM; for `CCN(CC)CCCN(c1ccnc(Nc2ccc3c(c2)CNS3(=O)=O)n1)c1cccc2[nH]ncc12` [GTC000368A]: 229 nM and 88.3 nM; for `CCN(CC)CCCN(c1ccnc(Nc2ccc3c(c2)S(=O)(=O)NC3)n1)c1cccc2[nH]ncc12` [GTC000291A]: 11.5 nM and 7.21 nM.

In turn, `O=S(=O)(Cc1ccc(Nc2nccc(Nc3cccc4[nH]ncc34)n2)cc1)NCCCO` [GTC000203A] came in with an IC50 of 746 nM. As to `NCCCN(c1ccnc(Nc2ccc3[nH]c(=O)[nH]c3c2)n1)c1cccc2[nH]ncc12` [GTC000293A], the IC50 stood at 9.29 nM. Molecule `Cn1ncc2ccc(Nc3nccc(N(CCCO)c4cccc5[nH]ncc45)n3)cc21` [GTC000270A] came in with an IC50 of 6.95 nM.

`CCN(c1nc(Nc2ccc3cn[nH]c3c2)ncc1F)c1cccc2[nH]ncc12` [GTC000247A]: the midpoint of inhibition, the IC50, lay at 4.25 nM.

As for `O=C1Nc2cc(Nc3nccc(Nc4cccc5[nH]ncc45)n3)ccc2OC1(F)F` [GTC000144A], the IC50 was 13.5 nM and 104 nM.

Take `O=C1CCc2ccc(Nc3nccc(Nc4cccc5[nH]ncc45)n3)cc21` [GTC000116A]: the IC50 is 195 nM and 146 nM.

For the molecule `CCN(c1nc(Nc2cccc(-c3cccnc3)c2)ncc1F)c1cccc2[nH]ncc12` [GTC000340A], the IC50 worked out at 29.3 nM. The same measure for `Cc1nc(-c2cccc(Nc3nccc(Nc4cccc5[nH]ncc45)n3)c2)no1` [GTC000148A]: 6.7 nM and 32 nM; for `CN(c1nc(Nc2ccc3[nH]c(=O)[nH]c3c2)ncc1F)c1cccc2[nH]ncc12` [GTC000264A]: 5.3 nM; for `O=S1(=O)NCc2ccc(Nc3nccc(N(CCCO)c4cccc5[nH]ncc45)n3)cc21` [GTC000226B]: 0.412 nM and 0.746 nM and 2.23 nM and 3.35 nM and 0.925 nM and 2.21 nM and 3.52 nM and 3.44 nM. For `NCCCCCN(c1ccnc(Nc2ccc3c(c2)S(=O)(=O)NC3)n1)c1cccc2[nH]ncc12` [GTC000244A], the IC50 is 3 nM and 3.31 nM and 5.53 nM. The same measure for `O=C1CNC(=O)N1c1ccc(Nc2nccc(Nc3cccc4[nH]ncc34)n2)cc1` [GTC000166A]: 242 nM.
